In US8470352B2, “Magnesium compositions and uses thereof for metabolic disorders” (Magceutics, Inc., priority 2007, dated 2013):

What was measured:
[1] = Magnesium absorption rate in rats (urine and feces magnesium by ICP-AES, linear regression); settings: Examples 5 and 6, gluconate in skim milk or 5 weight percent lactose water, chloride and threonate in water; for magnesium absorption rate at higher dosage: high magnesium dosage
Protocol: Fifty 3-month old, male Sprague Dawley (SD) rats were divided into five groups of ten rats. Rats of this age and older are considered adult. Each of the rats was placed in a separate metabolic cage equipped with urine- and feces-collecting wells. All of the rats were maintained in a temperature-controlled room (22° C. to 25° C.) with a dark period from 08:00 pm to 08:00 am daily. From day 1 through day 3, each rat was fed daily 15 g of magnesium-free food and de-ionized water. […] The medium was skim milk for Composition 1 and Group 1, milk prepared from powdered milk, by diluting the powdered milk with water to obtain a composition like that of skim milk, for Composition 2 and Group 2, 1% milk cream in water for Composition 3 and Group 3, water comprising 5 weight percent lactose for Composition 4 and Group 4, and water for the Control Composition and Control Group. […] From day 11 through day 12, each rat was fed daily 15 g of magnesium-free food and de-ionized water.
From day 4 through day 10, urine from each rat was collected daily. The collected urine from each rat was then pooled together and the total volume of the pooled urine from each rat was recorded. The pooled urine from each rat, in an amount of […], was analyzed for magnesium content using an inductively coupled plasma-atomic emission spectrometer (ICP-AES). From day 5 to day 11, feces from each rat were collected daily. The collected feces from each rat were pooled together and the pooled feces were weighed and homogenized. The pooled feces from each rat, in an amount of 0.5 g, were analyzed for magnesium content using an ICP-AES.
A formula was used to calculate a magnesium absorption rate for each rat. The formula used was Y=AX−B, wherein X was the average total daily magnesium intake, Y was the average net daily amount of magnesium absorbed, as calculated by X minus the average daily amount of magnesium excreted from feces, B was the average daily amount of magnesium excreted from feces when the magnesium intake was zero, and the slope A represented the magnesium absorption rate. […]

[2] = system: rats (young, aging, aged); settings: p<0.05
Protocol: Twenty 2-month old, male Sprague Dawley (SD) rats were housed in a temperature-controlled room (22° C. to 25° C.) with a dark period from 08:00 pm to 08:00 am daily. […] Over 7 days before the training and trial period began, each rat was handled and habituated to the maze and to Kellogg's Froot Loop cereal.
Each rat underwent a test of one trial, followed by an interval of 10-minutes, followed by another trial, and so on, for a total of 6 trials in one day. In each trial, each rat went through a sample run in the maze, followed by an interval of 15 seconds, followed by a choice run in the maze. […]
On the first day (designated day 0) of the feeding of the two groups, as just described, each rat underwent a preliminary test of one trial, followed by an interval of 10 minutes, followed by another trial, and so on, for a total of 4 trials in one day. […] In this preliminary test, the choice accuracy level, or ratio of correct choices made, co, to the number of number of trials in the test, no, was determined for each rat. […]
Three groups of animals (young, aging, and magnesium-treated aging rats) were used. […] Spatial working memory was assessed using a T-maze non-matching-to-place task. […] Spatial working memory was first assessed on an elevated T-maze. […]

rats (young, aging) = assay: Novel object recognition test in rats; assay type: in vivo, Sprague-Dawley rats
Protocol: In this example, the effect of magnesium supplementation on recognition memory was tested. Three groups of rats were used in these experiments: 1) young rats (three months old); aging rats (12-14 months old), and; 3) magnesium-treated aging rats (12-14 months old, diet supplemented with 6 mg/kg MgCl2 from 8 months of age). We used experimentally naive, female, Sprague-Dawley young […], aging (12-14 month old) and […] rats (Charles River) at the beginning of the behavior experiments. They were housed two per cage with continuous access to food and water under a 12:12 light-dark cycle, with light onset at 8:00 a.m. […] All experiments involving animals were approved by the Massachusetts Institute of Technology's and Tsinghua University Committees on Animal Care.
The three groups of rats were tested for recognition memory using an object recognition test with a single exposure to the object during training. The task is based on the natural tendency of rodents to explore new objects and tests the animals' memory capacity for distinguishing novel versus familiar objects.
Briefly, the rats were first individually habituated to the personnel and then to open-field arena during 2 weeks. […] The retention intervals were 10 min and 24 hours. Objects were cleaned thoroughly between trials with 20% ethanol solution to ensure the absence of olfactory cues. The particular objects for a given trial were randomly determined, but each object was used for only one trial per rat. Memory of the familiar object is associated with increased exploration of the new object and an exploration index (% correct) is calculated as new object inspection time/30.
In this example, the effect of magnesium supplementation on memory consolidation was studied. […]
Briefly, the rats were first individually habituated to the personnel and then to open-field arena during 2 weeks. […] The particular objects for a given trial were randomly determined, but each object was used for only one trial per rat. […]

[3] = in vivo; cited from earlier work
diabetic patients = settings: nearly 1 g of magnesium daily for 1 month; cited from earlier work
[4] = system: young (9-month old) and aged (25-month old) rats; settings: food containing 2% magnesium oxide for 8 days; gain transient; cited from earlier work
[5] = system: mice genetically altered to present symptoms of Alzheimer's disease (AD); assay: Modified Morris water maze test in AD mice; assay type: in vivo; settings: AD mice aged 13 months; FIG. 16 panels A and B
Protocol: Another group, the control group, of 10 mice that were genetically altered to present symptoms of AD were fed a Control Diet, a diet of normal solid food and water, for 30 days.
The pool used was a pool of water in a circular metal tank (150 cm in diameter and 50 cm in depth) having a water height of 30 cm and a water temperature that was maintained at ˜22° C. The pool was placed in a moderately lit area and surrounded by a black curtain. An acrylic platform (15 cm in diameter) was placed 2 cm below the surface of the water in the middle of one quadrant of the pool, equidistant from the center and the edge of the pool. Outside the pool, a cue was placed so as to be visible to a mouse in the maze, allowing a mouse to use it as a landmark for spatial orientation. The cue remained unchanged throughout the test period.
On the first day of the training and testing period, the water in the pool was transparent, such that the platform was visible. Each mouse was trained to swim towards the platform and to stand on the platform so as not to be submerged in the pool. […] The amount of time the mouse took to find the platform, referred to as “escape latency,” was recorded for each trial.
On the second day of the training and testing period, a small quantity of milk was added to the water in the pool, such that the pool was opaque and the platform was no longer visible. […]

[Cl-].[Cl-].[Mg+2] [magnesium chloride]
magnesium absorption rate at higher dosage [1]: less desirable | magnesium absorption rate at relatively low dosage ([1]; low magnesium dosage): suitable, but lower | learning in T-maze non-matching-to-place task, 15 sec delay ([2]; 6 mg/kg MgCl2, FIG. 10 left panel): performed significantly better from their first trials | spatial working memory at 2 and 5 min delays ([2]; 6 mg/kg MgCl2, FIG. 10 right panel): significantly enhanced the performance of the aging rats | novel object exploration preference, 10 minute retention interval (rats (young, aging); aging rats (12-14 months old), diet supplemented with 6 mg/kg MgCl2 from 8 months of age, single training, FIG. 8, P<0.0001): preferentially explored the novel object to the same extent as young rats | novel object discrimination after 24 hours (rats (young, aging); aging rats, 6 mg/kg MgCl2, single training): lose there ability to distinguish novel versus familiar objects | preference for the novel object, 24-hour retention interval after spaced training (rats (young, aging); aging rats, 6 mg/kg MgCl2, two training sessions, FIG. 9): retained a high level of preference

[O]=[Mg] [magnesium oxide]
magnesium bioavailability, or absorption rate in the human body [3]: very low | metabolic control (diabetic patients): only minor improvement | cognitive function [4]: some sign of improvement

CC12CC3CC(C)(C1)CC(N)(C3)C2 [memantine]
reduction of the effects of AD on learning capacity, comparison of anti-AD drugs [5]: better at reducing the effects of AD on learning capacity than aricept

magnesium gluconate
magnesium absorption rate at higher dosage [1]: suitably close to those associated with the lower dosage compositions
